Laboratory results reported in patent US6689759B1, “Methods of Treating hepatitis virus infections with N-substituted-1,5-dideoxy-1,5-imino-d-glucitol compounds in combination therapy” (G. D. Searle & Co., priority 2000, dated 2004).

Legend:
[1] = test system: woodchuck hepatitis virus (WHV); test: Woodchuck model, N-nonyl-DNJ monotherapy, BID oral dosing, total HBV DNA and IPDNA; assay type: in vivo
Procedure: Therefore, five groups of four animals each (all groups had both sexes, all but the control had two of each sex) were assigned to 0, 12.5, 25, 50, and 100 mg/kg/day with BID oral dosing. These were lab-reared wild animals. All animals were infected with woodchuck hepatitis virus (WHV) as neonates, and had been tested positive on serological tests for WHV surface antigen. Blood samples were drawn one week prior to dosing (−1 week), immediately before dosing (0 weeks), weekly during dosing (1, 2, 3, and 4 weeks), and after the end of dosing (5, 6, 8, and 10 weeks).
(§1) There are two measures of drug efficacy: reduction in total HBV DNA (measured by quantitative PCR), and reduction in HBV DNA from capsids with intact surface glycoproteins, which is the active form of the virus (measured by an ELISA-like immune precipitation assay followed by quantitative PCR).
Before models are fitted to the data, a log transform was applied because: 1) the variation in IPDNA increases with increasing IPDNA values; the log transformation gives values with a nearly constant variation, and 2) it is expected that drug effects will appear as a constant multiplier of the IPDNA level. Because there are zero values of IPDNA, a small value (about ½ of the smallest non-zero value) was added to all values before the log transform.
Two approaches were used to model the changes in slope to week with dose of N-nonyl-DNJ: a linear modeling approach and a nonlinear model. Both approaches assume that the (linear) rate of change of the Log(IPDNA) measure over the dosing period is the “right” measure to reflect the effect of the drug on the virus. Both approaches are fit in stages, and the first stage is common to both approaches. First, a simple straight line regression model is fit using weeks 0-4 to predict log(IPDNA+10) separately for each animal by run combination. In the second stage, the response variable is the slope fitted in the first stage.
For the linear approach, a model is fit with slope to week as the response where run is considered a block, dose has a significant effect (almost all of this effect is due to a slope to dose), and the relevant error for testing the effect of dose is the variation among animals treated alike (after the adjustment for the runs as blocks). This is similar to using the calibration data within each run to first adjust each run's data to a common virus DNA concentration; the difference is that here the data from the woodchucks are used for the run adjustment rather than only the calibration data.
For the nonlinear approach, a four parameter logistic model is fit with the slope to week as the response and the dose as the predictor. Again, run is considered a block, but because no run has all weeks, it is not possible to fully reflect the blocking in the nonlinear approach. […] The average maximum slope observed was 2.71 additional Log(IPDNA μg/mL)/week, or an increase of about 150%/week, the average minimum slope observed with N-nonyl-DNJ is 0.31 fewer Log(IPDNA μg/mL)/week), or about a decrease of about 25%/week. The slopes, the fitted model, the parameter estimates from the-model, and the approximate standard errors for these parameters are all shown in FIG. 3. […] Whether in woodchucks or humans, the effective dose of both the N-alkyl-DNJ and nucleoside or nucleotide antiviral agent administered in combination therewith can be administered in two equal daily subdoses (i.e., B.I.D.).

HBV DNA = test: Cell culture experiments with N-nonyl-DNJ: total HBV DNA and immune precipitated DNA (IPDNA); assay type: cell-based
Description: as §1

[2] = in vivo; cited from earlier work
Hepatitis B virus = settings: literature; cited from earlier work
[3] = HIV infected patients; cited from earlier work

## CCCCCCCCCN1C[C@H](O)[C@@H](O)[C@H](O)[C@H]1CO [N-nonyl-DNJ, N-(n-nonyl-)-1,5-dideoxy-1,5-imino-D-glucitol]
[1]; additional Log(IPDNA)/week, i.e. an increase, low dose end of the model
  average maximum slope observed: 2.71 Log(IPDNA μg/mL)/week
[1]; fewer Log(IPDNA)/week, i.e. a decrease
  average minimum slope observed: 0.31 Log(IPDNA μg/mL)/week
[1]; four parameter logistic model, slope of Log(IPDNA+10) to week versus dose
  EC50: 7.88 mg/kg/BID dose
[1]; in vivo
  decrease of IPDNA at the average minimum slope: about 25 %/week
[1]; low dose end of the model
  increase of IPDNA at the average maximum slope: about 150 %/week
[1]; woodchuck, all dose levels, quantitative PCR
  effect on total HBV DNA measurements: no effect
[1]; woodchuck, change in slope statistically significant (p<0.005)
  slope of IPDNA over weeks 0-4: generally increasing for low dose animals and decreasing for high dose animals
[1]; woodchucks
  approximate effective monotherapy dose: about 16 mg/kg/day
HBV DNA
  effect on immune precipitated DNA (IPDNA): marked effect
  effect on total HBV DNA: little or no effect

## O=c1[nH]c(=O)n([C@@H]2O[C@H](CO)[C@@H](O)[C@@H]2F)cc1I [fialuridine]
[2]
  toxicity: drug-related liver failure leading to death in some patients

## CCCCN1C[C@H](O)[C@@H](O)[C@H](O)[C@H]1CO [n-butyl-DNJ, N-butyl-1-5-dideoxy-1,5-imino-D-glucitol]
Hepatitis B virus
  usefulness against Hepatitis B infection: effective
[3]
  tolerability: well tolerated

## Cc1cn([C@H]2C[C@H](N=[N+]=[N-])[C@@H](CO)O2)c(=O)[nH]c1=O [zidovudine, 3′-azido-3′-deoxythymidine, reference compound]
Hepatitis B virus
  usefulness against Hepatitis B infection: appears to have little use against the same virus
